From US6472175B1, “Sialylation of N-linked glycoproteins in the baculovirus expression vector system” (Boyce Thompson Institute For Plant Research, Inc., priority 1999, dated 2002)

Legend:
[1] = tested on: Tn-4h Insect Tissue Culture Cells; experiment: Measurement of total cellular sialic acid (colorimetric assay) in Tn-4h insect tissue culture cells; assay type: cell-based, Trichoplusia ni
Excerpt: Since substrate levels can affect sialylation, it was hypothesized that the microgravity-mediated sialylation might have resulted from an increase in substrate availability. […] This hypothesis was investigated further by comparing the concentration of sialic acid in cells grown in T-flasks and in HARV bioreactors.

[2] = tested on: Tn-4h cells; experiment: Sialylation of baculovirus-expressed SEAP N-linked glycans, normal phase HPLC of 2-AB-labeled glycans; assay type: cell-based, Trichoplusia ni; settings: normal gravity
Experimental: Once the SEAP protein is purified, the oligosaccharide moieties are cleaved from the glycoprotein with peptide N-glycosidase F (cleaves oligomannose, hybrid and complex oligosaccharides with or without terminal sialic acid residues). The oligosaccharides are then bonded to a fluorophore marker. The labeled sugar can be digested with various glycosidases that cleave specific linkages. The samples are analyzed by HPLC. Normal phase HPLC fractionations are carried out with a 50 mM ammonium phosphate, pH 4.4, and acetonitrile gradient on a Glyco Sep-N column (OGS, Oxford, UK) by a technique being known in the art, and incorporated by reference (Guile et al., 1996; Mattu et al., 1998). The Glyco Sep-N column is capable of resolving both neutral and charged sugar residues based on hydrophilicity (related to the hydrodynamic volume and molecular size). To obtain accurate glucose equivalency values, the GlycoSep-N is calibrated with a 2-aminobenzamide (2-AB) labeled dextran hydrolysate ladder and glucose homopolymers. The 2-AB fluorescence is detected and quantified using a Waters^a 474 Scanning Fluorescence Detector (Waters Corporation, MA) at λex 330 nm and λcm 420 nm using a 16 μl flow cell.
Since substrate levels can affect sialylation, it was hypothesized that the microgravity-mediated sialylation might have resulted from an increase in substrate availability. […]

[3] = tested on: mammalian (CHO) cells; settings: cited from earlier work

CC(=O)N[C@@H]1C(O)O[C@H](CO)[C@@H](O)[C@@H]1O (stereo partly shown) [ManNAc, N-acetylmannosamine]
change of sialic acid level, infected cells ([1]; addition to culture medium, infected Tn-4h cells): not infected cells
change of sialic acid level, uninfected cells ([1]; addition to culture medium, uninfected Tn-4h cells): increased the levels of sialic acid in uninfected cells
nMoles Sialic Acid per mg Cell Protein, Infected ([1]; baculovirus infected Tn-4h cells, T-flask, medium supplemented with 5 mM ManNAc): 98 ± 9 nMoles Sialic Acid per mg Cell Protein
nMoles Sialic Acid per mg Cell Protein, Uninfected ([1]; uninfected Tn-4h cells, T-flask, medium supplemented with 5 mM ManNAc): 62 ± 7 nMoles Sialic Acid per mg Cell Protein
sialylated SEAP glycans identified ([2]; 5 mM in medium, stationary T-flasks, Tn-4h cells): five sialylated SEAP glycans were identified
induction of complex, sialylated glycans on a secreted human glycoprotein ([2]; culture media supplemented, insect tissue culture cells): induced to produce complex, sialylated glycans
effect on sialylation [3]: increase sialylation
